target: T1, Met kinase (Homo sapiens, UniProt P08581); test: Met kinase inhibition, flashplate method; assay type: biochemical; settings: 33P-ATP, substrate pAGLT, 3 hrs at room temperature, read-out: IC50 (enzyme)
T1 construct: 6His (N); purchased Upstate 14-526; host or cells: Sf21 insect cells (S. frugiperda), baculovirus
Excerpt: Measurement of Met Kinase Activity
According to the manufacturer's data (Met, active, upstate, catalogue No. 14-526), Met kinase is expressed for the purposes of protein production in insect cells (Sf21; S. frugiperda) and subsequent affinity-chromatographic purification as “N-terminal 6His-tagged” recombinant human protein in a baculovirus expression vector.
Flashplate Method (Met Kinase)
The test plates used are 96-well Flashplate® microtitre plates from Perkin Elmer (Cat. No. SMP200). The components of the kinase reaction described below are pipetted into the assay plate. The Met kinase and the substrate poly Ala-Glu-Lys-Tyr, (pAGLT, 6:2:5:1), are incubated for 3 hrs at room temperature with radioactively labelled ^33P-ATP in the presence and absence of test substances in a total volume of 100 μl. The reaction is terminated using 150 μl of a 60 mM EDTA solution. After incubation for a further 30 min at room temperature, the supernatants are filtered off with suction, and the wells are washed three times with 200 μl of 0.9% NaCl solution each time. The measurement of the bound radioactivity is carried out by means of a scintillation measuring instrument (Topcount NXT, Perkin-Elmer).
The full value used is the inhibitor-free kinase reaction. This should be approximately in the range 6000-9000 cpm. The pharmacological zero value used is staurosporin in a final concentration of 0.1 mM. The inhibitory values (IC50) are determined using the RS1_MTS program.
Kinase Reaction Conditions Per Well:
• 30 μl of assay buffer • 10 μl of substance to be tested in assay buffer with 10% of DMSO • 10 μl of ATP (final concentration 1 μM cold, 0.35 μCi of ^33P-ATP) • 50 μl of Met kinase/substrate mixture in assay buffer; • (10 ng of enzyme/well, 50 ng of pAGLT/well)
Assay Buffer: • 50 mM HEPES • 3 mM magnesium chloride • 3 μM sodium orthovanadate • 3 mM manganese(II) chloride • 1 mM dithiothreitol (DTT) • pH=7.5 (to be set using sodium hydroxide)
Stop Solution: • 60 mM Titriplex III (EDTA)
^33P-ATP: Perkin-Elmer; • Met kinase: Upstate, Cat. No. 14-526, Stock 1 μg/10 μl; spec. activity 954 U/mg; • Poly-Ala-Glu-Lys-Tyr, 6:2:5:1: Sigma Cat. No. P1152

T1 sequence (P08581 974-1390 limits assumed): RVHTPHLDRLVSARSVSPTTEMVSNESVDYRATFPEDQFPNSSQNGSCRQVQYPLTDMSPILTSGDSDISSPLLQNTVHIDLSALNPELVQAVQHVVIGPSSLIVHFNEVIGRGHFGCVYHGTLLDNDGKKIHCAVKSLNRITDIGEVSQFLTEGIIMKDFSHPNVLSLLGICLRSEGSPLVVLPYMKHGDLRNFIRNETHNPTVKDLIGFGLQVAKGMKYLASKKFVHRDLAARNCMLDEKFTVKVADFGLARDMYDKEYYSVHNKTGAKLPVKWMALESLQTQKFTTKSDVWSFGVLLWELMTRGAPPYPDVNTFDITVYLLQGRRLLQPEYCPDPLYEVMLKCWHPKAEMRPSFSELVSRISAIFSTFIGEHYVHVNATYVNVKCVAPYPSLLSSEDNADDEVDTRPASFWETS

IC50, 10 to 1000 nM:
CN(C)CCCOC(=O)Nc1cccc(CN2N=C(c3cccc(F)c3)CSC2=O)c1 [Compound A11]
O=C(Nc1cccc(CN2N=C(c3cc(Cl)ccc3O)CSC2=O)c1)c1cccnc1 [Compound B4]
CC(c1cccc(NC(=O)OCCCN2CCOCC2)c1)N1N=C(c2ccc(F)c(F)c2)CSC1=O (stereo not shown) [Compound A29]
CC(c1cccc(NC(=O)OCCCN2CCN(C)CC2)c1)N1N=C(c2ccc(F)c(F)c2)CSC1=O (stereo not shown) [Compound A30]
CC(c1cccc(NC(=O)OCCCN(C)C)c1)N1N=C(c2ccc(F)c(F)c2)CSC1=O (stereo not shown) [Compound A31]
O=C(Nc1cccc(CN2N=C(c3ccccc3O)CSC2=O)c1)c1cccnc1 [Compound B6]
CN(C)CCCOC(=O)Nc1cccc(CN2N=C(c3ccc(Cl)cc3)CSC2=O)c1 [Compound A6]
CCOC(=O)Nc1cccc(CN2N=C(c3ccc(Cl)cc3)CSC2=O)c1 [Compound A7]
CN(C)CCCOC(=O)Nc1cccc(CN2N=C(c3ccc(C#N)cc3)CSC2=O)c1 [Compound A20]
CCNCCCOC(=O)Nc1cccc(CN2N=C(c3ccc(C#N)cc3)CSC2=O)c1 [Compound A33]
COc1ccccc1C1=NN(Cc2cccc(NC(=O)OCCCN(C)C)c2)C(=O)SC1 [Compound A17]
CN(C)CCCOC(=O)Nc1cccc(CN2N=C(c3ccccc3F)CSC2=O)c1 [Compound A12]
CNCC(=O)Nc1cccc(CN2N=C(c3cc(Cl)ccc3O)CSC2=O)c1 [Compound B1, N-{3-[5-(5-chloro-2-hydroxyphenyl)-2-oxo-6H-1,3,4-thiadiazin-3-ylmethyl]phenyl}-2-methylaminoacetamide]

From US7902186B2, “Substituted 5-phenyl-3,6-dihydro-2-oxo-6H-1,3,4-thiadiazines” (Merck Patent GmbH, priority 2005, dated 2011)
